We go through 15 compounds from US20260042764A1, “COMPOSITIONS AND METHODS FOR INHIBITION OF KRAS” (TheRas, Inc., priority 2022, published 2026).

One test deals with SW620 cells (KRAS G12V). In words: Cell-based pERK HTRF assay in SW620 cell (Biological Example 4). The settings on record: Homo sapiens, SW-620, SW620 (KRAS G12V) cells. In a few lines:
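This assay measures inhibition of ERK phosphorylation downstream of KRAS G12V in intact SW620 cells. Compounds are applied for 4 h over nine half-log concentrations starting at 1 μM, and pERK is quantified by HTRF.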

For another test, the system named is GP2d cells (KRAS G12D). In words: Cell-based pERK HTRF assay in GP2d cell (Biological Example 2). The settings on record: GP2d, GP2d (KRAS G12D) cells. The method, boiled down: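 Phospho-ERK in lysed cells was detected by HTRF using Eu cryptate and d2 antibodies, read between 4 and 24 h at room temperature. Prior to lysis, KRAS G12D GP2d cells, seeded the day before in DMEM with 10% FBS, were exposed to compounds for 60 min. Compounds were tested as 9-point half-log curves from 1 μM or 100 nM top, with 0.25% DMSO.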

Test [1] has as its target T1, Avi-KRAS G12D (2-169) GTP/RAF1 RBD-3xFLAG (51-131) (Homo sapiens, UniProt P01116, G12D).
T1 construct: Avi-KRAS G12D (2-169)
In words: Raf1-KRAS G12D-GTP disruption HTRF assay (Biological Example 3). The format is binding. The settings on record: KRAS G12D, GTP-loaded. As for the experimental part:
(§1) Biological Example 3: Disrupting RAS-Effector Binding HTRF Assay
(§2) A protein:protein interaction (PPI) Homogeneous Time Resolved Fluorescence (HTRF) assay was used to determine the effectiveness of compounds in disrupting KRAS protein and effector (RAF1) binding.
(§3) The HTRF assay used the following reagents and proteins: (i) 50 nM Avi-KRAS G12D (2-169) GTP/RAF1 RBD-3xFLAG (51-131): (ii) 50 nM Avi-KRAS G12C (2-169) GTP/RAF1 RBD-3xFLAG (51-131): (iii) 50 nM Avi-KRAS G12V (2-169) GTP/RAF1 RBD-3xFLAG (51-131); (iv) 50 nM Avi-KRAS WT (2-169) GTP/RAF1 RBD-3xFLAG (51-131); and (v) 75 nM 3xFLAG-RAF1 RBD (51-131)-Avi. The assay buffer included: 50 mM Tris pH 7.5 (Invitrogen, 15567-027), 100 mM NaCl (Sigma, S5150-IL), 5 mM MgCl2 (Sigma, 63069), 0.1% BSA (Sigma, A7030), 0.01% Tween 20 (Sigma, P7949), 10% DMSO (Cell Signaling, 12611). The bead buffer included: 50 mM Tris pH 7.5 (Invitrogen, 15567-027), 0.01% Tween 20 (Sigma, P7949). An assay volume of 20 μL was used in a 384 well plate-low volume format. Compound titration: 30-0.005 μM, 3x dilution series.
(§4) The HTRF assay employed the following protocol:
(§5) Compounds were dispensed in assay plate (384-well, Grenier Bio-One #784075) using Echo (model 555) with dose response settings: 200 nL final volume, titration from 30 μM as a 10-point dilution series. Proteins and HTRF reagents were mixed and dispensed onto plates, 20 μL per well, and then incubated for 1 h at room temperature, with 700 rpm shaking.
(§6) Plates were analyzed on an Envision plate reader using the following setting: Excitation 320 nm, Bandwidth 75 nm; Emission 615 nm, Bandwidth 85 nm; Gain 100%; Flashes 100; Lag 60 μs. Data was reported as percentage of activity, with DMSO as 100%. Data was plotted and analyzed using Prism 8.
(§7) The biochemical Raf1-KRAS G12D/G12V/G12C/WT-GTP disruption assay IC50 of selected compounds described herein are shown in Table 12.

Test [2] deals with T2, Avi-KRAS WT (2-169) GTP/RAF1 RBD-3xFLAG (51-131) (Homo sapiens, UniProt P01116).
T2 construct: Avi-KRAS WT (2-169)
Kind of test: Raf1-KRAS WT-GTP disruption HTRF assay (Biological Example 3). The format is binding. The settings on record: KRAS WT, GTP-loaded. As for the experimental part: as §1, §2, §3, §4, §5, §6, §7

Test [3] addresses T3, Avi-KRAS G12C (2-169) GTP/RAF1 RBD-3xFLAG (51-131) (Homo sapiens, UniProt P01116, G12C).
T3 construct: Avi-KRAS G12C (2-169)
Kind of test: Raf1-KRAS G12C-GTP disruption HTRF assay (Biological Example 3). It is filed as binding. The conditions noted are these: KRAS G12C, GTP-loaded. As for the experimental part: as §1, §2, §3, §4, §5, §6, §7

The target of test [4] is T4, Avi-KRAS G12V (2-169) GTP/RAF1 RBD-3xFLAG (51-131) (Homo sapiens, UniProt P01116, G12V).
T4 construct: Avi-KRAS G12V (2-169)
In words: Raf1-KRAS G12V-GTP disruption HTRF assay (Biological Example 3). The conditions noted are these: KRAS G12V, GTP-loaded. It is filed as binding. The procedure: as §1, §2, §3, §4, §5, §6, §7

T1 sequence (P01116 2-169 isoform P01116-2 G12D): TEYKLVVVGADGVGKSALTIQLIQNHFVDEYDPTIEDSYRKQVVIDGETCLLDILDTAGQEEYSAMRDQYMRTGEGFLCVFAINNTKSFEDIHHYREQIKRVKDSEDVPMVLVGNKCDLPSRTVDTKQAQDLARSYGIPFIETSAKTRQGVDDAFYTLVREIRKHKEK
T4 sequence (P01116 2-169 isoform P01116-2 G12V): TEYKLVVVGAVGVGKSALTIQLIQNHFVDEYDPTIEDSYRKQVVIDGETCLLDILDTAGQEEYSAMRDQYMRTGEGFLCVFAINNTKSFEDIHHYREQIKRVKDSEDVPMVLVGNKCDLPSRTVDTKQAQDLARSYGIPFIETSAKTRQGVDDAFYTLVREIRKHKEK
T3 sequence (P01116 2-169 isoform P01116-2 G12C): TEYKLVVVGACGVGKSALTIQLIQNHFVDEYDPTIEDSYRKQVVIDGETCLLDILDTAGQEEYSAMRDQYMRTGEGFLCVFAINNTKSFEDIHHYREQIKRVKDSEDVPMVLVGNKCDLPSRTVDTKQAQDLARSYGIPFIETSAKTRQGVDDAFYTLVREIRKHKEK
T2 sequence (P01116 2-169 isoform P01116-2): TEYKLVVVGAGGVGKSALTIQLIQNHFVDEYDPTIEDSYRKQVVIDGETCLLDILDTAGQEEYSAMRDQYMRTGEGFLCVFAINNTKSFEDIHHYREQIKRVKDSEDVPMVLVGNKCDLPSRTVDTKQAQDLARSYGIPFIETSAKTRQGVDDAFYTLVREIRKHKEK

`CCN(c1nc(OC[C@@]23CCCN2C[C@H](F)C3)nc2c(F)c(-c3ccc(F)c4sc(N)c(C#N)c34)c(C(F)(F)F)cc12)[C@H]1CCN(c2ccccn2)C1` [Compound 948]: the IC50 in the test with SW620 cells (KRAS G12V) is below 100 nM; with GP2d cells (KRAS G12D), below 100 nM; in test [1], 1000 to 10000 nM; in test [2], above 10000 nM; in test [3], 1000 to 10000 nM; in test [4], above 10000 nM.
For the compound `CCN(c1nc(OC[C@@]23CCCN2C[C@H](F)C3)nc2c(F)c(-c3ccc(F)c4sc(N)c(C#N)c34)c(C(F)(F)F)cc12)[C@H]1C[C@H](COC)N(C(=O)[C@H]2CCO2)C1` (atropisomer, axis not shown) [Compound 840], the IC50 with SW620 cells (KRAS G12V) is below 100 nM; in the test with GP2d cells (KRAS G12D), below 100 nM; in test [1] it was 100 to 1000 nM; in test [2], 100 to 1000 nM; in test [3], 100 to 1000 nM; in test [4] it was 100 to 1000 nM.
Take `CCN(c1nc(OC[C@@]23CCCN2C[C@H](F)C3)nc2c(F)c(-c3ccc(F)c4sc(N)c(C#N)c34)c(C(F)(F)F)cc12)[C@@H]1C=C[C@H](C(=O)N(C)C)C1` (atropisomer, axis not shown) [Compound 937]: the IC50 was below 100 nM with SW620 cells (KRAS G12V); below 100 nM in the test with GP2d cells (KRAS G12D); 1000 to 10000 nM in test [1]; 1000 to 10000 nM in test [2]; 1000 to 10000 nM in test [3]; 1000 to 10000 nM in test [4].
For the compound `CCN(c1nc(OC[C@@]23CCCN2C[C@H](F)C3)nc2c(F)c(-c3ccc(F)c4sc(N)c(C#N)c34)c(C(F)(F)F)cc12)[C@H]1CCN(C(=O)C2CC2)[C@@H]1COC` (atropisomer, axis not shown) [Compound 925], the IC50 in the test with SW620 cells (KRAS G12V) was below 100 nM; in the test with GP2d cells (KRAS G12D), below 100 nM; in test [1], 100 to 1000 nM; in test [2] it was 100 to 1000 nM; in test [3], 100 to 1000 nM; in test [4] it was 100 to 1000 nM.
Turning to `CN(Cc1ccncc1)c1nc(OC[C@@]23CCCN2C[C@H](F)C3)nc2c(F)c(-c3ccc(F)c4sc(N)c(C#N)c34)c(C(F)(F)F)cc12` (atropisomer, axis not shown) [Compound 867], the 50% inhibitory concentration (IC50) in the test with SW620 cells (KRAS G12V) was below 100 nM; in the test with GP2d cells (KRAS G12D), below 100 nM; in test [1], 1000 to 10000 nM; in test [2], 1000 to 10000 nM; in test [3], 1000 to 10000 nM; in test [4] it was 1000 to 10000 nM.
As for `N#Cc1c(N)sc2c(F)ccc(-c3c(C(F)(F)F)cc4c(N5Cc6ccncc6C5)nc(OC[C@@]56CCCN5C[C@H](F)C6)nc4c3F)c12` [Compound 946], the IC50 in the test with SW620 cells (KRAS G12V) was 100 to 1000 nM; with GP2d cells (KRAS G12D), below 100 nM; in test [1] it was 1000 to 10000 nM; in test [2] it was 1000 to 10000 nM; in test [3], 1000 to 10000 nM; in test [4], 1000 to 10000 nM.
Take `CCN(c1nc(OC[C@@]23CCCN2C[C@H](F)C3)nc2c(F)c(-c3ccc(F)c4sc(N)c(C#N)c34)c(C(F)(F)F)cc12)[C@H]1CCN(C(=O)[C@@H]2C[C@H]2F)[C@@H]1C` (atropisomer, axis not shown) [Compound 892]: the IC50 with SW620 cells (KRAS G12V) is below 100 nM; with GP2d cells (KRAS G12D), below 100 nM; in test [1], 100 to 1000 nM; in test [2], 100 to 1000 nM; in test [3], 100 to 1000 nM; in test [4], 100 to 1000 nM.
Turning to `CCN(c1nc(OCC23CCCN2CC(F)C3)nc2c(F)c(-c3ccc(F)c4sc(N)c(C#N)c34)c(C(F)(F)F)cc12)C(C)c1cccnc1` (stereo not drawn) [Compound 933], the IC50 in the test on SW620 cells (KRAS G12V) was below 100 nM; in the test on GP2d cells (KRAS G12D), below 100 nM; in test [1] it was 1000 to 10000 nM; in test [2], above 10000 nM; in test [3], above 10000 nM; in test [4], above 10000 nM.
Turning to `[2H][C@]1(N(CC)c2nc(OC[C@@]34CCCN3C[C@H](F)C4)nc3c(F)c(-c4ccc(F)c5sc(N)c(C#N)c45)c(C(F)(F)F)cc23)CCN(C(=O)C(C)C)C1` (atropisomer, axis not shown) [Compound 860], the IC50 is below 100 nM with SW620 cells (KRAS G12V); below 100 nM with GP2d cells (KRAS G12D); 100 to 1000 nM in test [1]; 100 to 1000 nM in test [2]; 100 to 1000 nM in test [3]; 100 to 1000 nM in test [4].
As to `N#Cc1c(N)sc2c(F)ccc(-c3c(C(F)(F)F)cc4c(N(CCF)[C@H]5CCN(C(=O)[C@@H]6CC6(F)F)C5)nc(OC[C@@]56CCCN5C[C@H](F)C6)nc4c3F)c12` (atropisomer, axis not shown) [Compound 843], the IC50 with SW620 cells (KRAS G12V) was below 100 nM; in the test with GP2d cells (KRAS G12D) it was below 100 nM; in test [1] it was 100 to 1000 nM; in test [2], 1000 to 10000 nM; in test [3], 100 to 1000 nM; in test [4], 100 to 1000 nM.
In the case of `N#Cc1c(N)sc2c(F)ccc(-c3c(C(F)(F)F)cc4c(N5CCCC(c6cccnc6)C5)nc(OC[C@@]56CCCN5C[C@H](F)C6)nc4c3F)c12` (stereo partly drawn) [Compound 944], the IC50 is 100 to 1000 nM in the test on SW620 cells (KRAS G12V); 100 to 1000 nM with GP2d cells (KRAS G12D); above 10000 nM in test [1]; above 10000 nM in test [2]; above 10000 nM in test [3]; above 10000 nM in test [4].
Turning to `CN(Cc1cccc(=O)n1C)c1nc(OC[C@@]23CCCN2C[C@H](F)C3)nc2c(F)c(-c3ccc(F)c4sc(N)c(C#N)c34)c(C(F)(F)F)cc12` (atropisomer, axis not shown) [Compound 879], the IC50 is below 100 nM in the test on SW620 cells (KRAS G12V); below 100 nM in the test with GP2d cells (KRAS G12D); 1000 to 10000 nM in test [1]; above 10000 nM in test [2]; above 10000 nM in test [3]; above 10000 nM in test [4].
Consider `CCN(c1nc(OC[C@@]23CCCN2C[C@H](F)C3)nc2c(F)c(-c3ccc(F)c4sc(N)c(C#N)c34)c(C(F)(F)F)cc12)[C@H]1CCN(C(=O)C2C[C@H]2F)[C@@H]1C` (stereo partly drawn) [Compound 874], for which the 50% inhibitory concentration (IC50) in the test on SW620 cells (KRAS G12V) was below 100 nM; with GP2d cells (KRAS G12D), below 100 nM; in test [1] it was 100 to 1000 nM; in test [2] it was 100 to 1000 nM; in test [3], 100 to 1000 nM; in test [4], 100 to 1000 nM.
Consider `CCN(c1nc(OC[C@@]23CCCN2C[C@H](F)C3)nc2c(F)c(-c3ccc(F)c4sc(N)c(C#N)c34)c(C(F)(F)F)cc12)[C@H]1C=C[C@@H](C(=O)N(C)C)C1` (atropisomer, axis not shown) [Compound 938], for which the IC50 in the test with SW620 cells (KRAS G12V) was 100 to 1000 nM; with GP2d cells (KRAS G12D), below 100 nM; in test [1] it was 1000 to 10000 nM; in test [2], above 10000 nM; in test [3] it was above 10000 nM; in test [4] it was above 10000 nM.
`CN(Cc1ccno1)c1nc(OC[C@@]23CCCN2C[C@H](F)C3)nc2c(F)c(-c3ccc(F)c4sc(N)c(C#N)c34)c(C(F)(F)F)cc12` (atropisomer, axis not shown) [Compound 917]: the IC50 with SW620 cells (KRAS G12V) was below 100 nM; with GP2d cells (KRAS G12D) it was below 100 nM; in test [1] it was 100 to 1000 nM; in test [2], 1000 to 10000 nM; in test [3], 1000 to 10000 nM; in test [4], 100 to 1000 nM.
